Columns and labels:
[1] = test system: certain cancer cell lines; set-up: method as in PMID 25845933; details: cited from earlier work
HeLa cells = assay: MTT antiproliferative assay, HeLa; format: cell-based, human; details: Homo sapiens, 72 h; for inhibition at 10 µM: read-out: Growth inhibition, % ± SEM, 10 μM; for inhibition at 30 µM: read-out: Growth inhibition, % ± SEM, 30 μM; for IC50: read-out: calculated IC50 value
Summary of the method: (§1)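 MTT readout after 4 h contact, formazan taken up in DMSO. Compounds tested at 10 and 30 µM for 72 h; seeding 5,000 cells/well, C33-A 10,000/well. Oropharyngeal lines grown with 2.0 mM L-glutamine.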

MCF-7 cells = assay: MTT antiproliferative assay, MCF-7; format: cell-based, human; details: Homo sapiens, MCF7, 72 h; for inhibition at 10 µM / inhibition at 30 µM: read-out: Growth inhibition, % ± SEM, 72 h; for inhibition at 10 µM: MCF-7, 10 μM; for inhibition at 30 µM: MCF-7, 30 μM; for IC50: read-out: calculated IC50 value
Summary of the method: as §1

[2] = test system: non-cancerous mouse embryo fibroblast (NIH/3T3) cells; assay: MTT assay on non-cancerous fibroblasts (tumour selectivity); format: cell-based; details: Mus musculus, NIH3T3, 72 h; for inhibition at 10 µM / inhibition at 30 µM: read-out: Growth inhibition, % ± SEM; for IC50: read-out: calculated IC50 value
Procedure: (§2) The antiproliferative properties of the newly synthesized compounds (9–20) and their starting materials (4 and 5) were determined on a panel of human adherent cancer cell lines. MCF-7, MDA-MB-231 and T47D were isolated from breast cancers differing in biochemical background, while A2780 cells were isolated from ovarian cancer. HeLa and SiHa are cervical cancer cell lines positive for HPV-18 and HPV-16, respectively, while C33-A cervical cancer cells are negative for HPV. Moreover, two oropharyngeal cancer cell lines were also utilized: the HPV-negative UPCI-SCC-131 and HPV-16 positive UPCI-SCC-154. The cancer selectivity of compounds was tested on the non-cancerous mouse embryo fibroblast cell line NIH/3T3. All cell lines were purchased from European Collection of Cell Cultures (ECCAC, Salisbury, UK) exception for SiHa and C33-A (American Tissue Culture Collection, Manassas, VA, USA) and HN-SCC-131 and UPCI-SCC-154 (German Collection of Microorganisms and Cell Cultures GmbH, Braunschweig, Germany). Cells were cultivated in minimal essential medium supplemented with 10% fetal bovine serum, 1% non-essential amino acids and an antibiotic–antimycotic mixture. The medium of oropharyngeal cancer cells additionally contained 2.0 mM L-glutamine. All media and supplements were obtained from Lonza Group Ltd., Basel, Switzerland. Near-confluent cancer cells were seeded onto a 96-well microplate at a density of 5,000 cells/well, except for C33-A which were seeded at 10,000/well. After overnight standing, new medium containing the tested compounds at 10 and 30 µM final concentration was added. After incubation for 72 h at 37 °C in humidified air containing 5% CO2, the living cells were assayed by the addition of 20 μL of 5 mg/ml 3-(4,5-dimethylthiazol-2-yl)-2,5-diphenyltetrazolium bromide (MTT) solution. MTT was converted by intact mitochondrial reductase and precipitated as purple crystals during a 4-h contact period. The medium was next removed and the precipitated formazan crystals were dissolved in 100 μL of DMSO during a 60-min period of shaking at 37 ^оC.
All in vitro experiments were carried out twice with five parallels. Stock solutions of the tested substances (10 mM) were prepared in DMSO. […] Cisplatin (Ebewe Pharma GmbH, Unterach, Austria) was used as positive control.

C33-A cells = assay: MTT antiproliferative assay, C33-A; format: cell-based, human; details: Homo sapiens, C-33-A, 72 h; for inhibition at 10 µM: read-out: Growth inhibition, % ± SEM, C33-A, 10 μM; for inhibition at 30 µM: read-out: Growth inhibition, % ± SEM, C33-A, 30 μM; for IC50: read-out: calculated IC50 value
Summary of the method: as §1

T47D cells = assay: MTT antiproliferative assay, T47D; format: cell-based, human; details: Homo sapiens, 72 h; for inhibition at 10 µM: read-out: Growth inhibition, % ± SEM, 10 μM; for inhibition at 30 µM: read-out: Growth inhibition, % ± SEM, 30 μM; for IC50: read-out: calculated IC50 value
Summary of the method: as §1

UPCI-SCC-131 cells = assay: MTT antiproliferative assay, UPCI-SCC-131; format: cell-based, human; details: Homo sapiens, 72 h, 72 h; for inhibition at 10 µM / inhibition at 30 µM: read-out: Growth inhibition, % ± SEM; for inhibition at 10 µM: UPCI-SCC-131, 10 μM; for inhibition at 30 µM: UPCI-SCC-131, 30 μM; for IC50: read-out: calculated IC50 value
Summary of the method: as §1

UPCI-SCC-154 cells = assay: MTT antiproliferative assay, UPCI-SCC-154; format: cell-based, human; details: Homo sapiens, 72 h, 72 h; for inhibition at 10 µM / inhibition at 30 µM: read-out: Growth inhibition, % ± SEM; for inhibition at 10 µM: UPCI-SCC-154, 10 μM; for inhibition at 30 µM: UPCI-SCC-154, 30 μM; for IC50: read-out: calculated IC50 value
Summary of the method: as §1

MDA-MB-231 cells = assay: MTT antiproliferative assay, MDA-MB-231; format: cell-based, human; details: Homo sapiens, MDA-MB-231, 72 h; for inhibition at 10 µM / inhibition at 30 µM: read-out: Growth inhibition, % ± SEM; for IC50: read-out: calculated IC50 value
Summary of the method: as §1

[3] = test system: panel of human adherent cancer cell lines; assay: MTT antiproliferative assay, whole panel of cell lines; format: cell-based; details: read-out: IC50 (span over the panel)
Procedure: as §2, with “^оC. […]” for “^оC.”

A2780 cells = assay: MTT antiproliferative assay, A2780; format: cell-based, human; details: Homo sapiens, A2780, 72 h; for inhibition at 10 µM / inhibition at 30 µM: read-out: Growth inhibition, % ± SEM, 72 h; for inhibition at 10 µM: A2780, 10 μM; for inhibition at 30 µM: A2780, 30 μM; for IC50: read-out: calculated IC50 value
Summary of the method: as §1

SiHa cells = assay: MTT antiproliferative assay, SiHa; format: cell-based, human; details: Homo sapiens, 72 h; for inhibition at 10 µM: read-out: Growth inhibition, % ± SEM, 10 μM; for inhibition at 30 µM: read-out: Growth inhibition, % ± SEM, 30 μM; for IC50: read-out: calculated IC50 value
Summary of the method: as §1

Structure (SMILES) | inhibition at 10 µM (HeLa cells) [%] | inhibition at 30 µM (HeLa cells) [%] | IC50 (HeLa cells) [µM] | inhibition at 10 µM (MCF-7 cells) [%] | inhibition at 30 µM (MCF-7 cells) [%] | IC50 (MCF-7 cells) [µM] | inhibition at 10 µM [2] [%] | inhibition at 30 µM [2] [%] | IC50 [2] [µM] | inhibition at 10 µM (C33-A cells) [%] | inhibition at 30 µM (C33-A cells) [%] | IC50 (C33-A cells) [µM] | inhibition at 10 µM (T47D cells) [%] | inhibition at 30 µM (T47D cells) [%] | IC50 (T47D cells) [µM] | inhibition at 10 µM (UPCI-SCC-131 cells) [%] | inhibition at 30 µM (UPCI-SCC-131 cells) [%] | IC50 (UPCI-SCC-131 cells) [µM] | inhibition at 10 µM (UPCI-SCC-154 cells) [%] | inhibition at 30 µM (UPCI-SCC-154 cells) [%] | also measured
CCc1ccc(-c2cn([C@H]3C[C@H]4[C@@H]5CCc6cc(OCc7ccccc7)ccc6[C@H]5CC[C@@]4(C)[C@@H]3O)nn2)cc1 [Compound 28] |  |  |  |  |  |  |  |  |  |  |  |  |  |  |  |  |  |  |  |  | IC50 [1]: low micromolar range
C[C@@]12CC[C@@H]3c4ccc(OCc5ccccc5)cc4CC[C@H]3[C@@H]1C[C@H](CP(=O)(c1ccccc1)c1ccccc1)C2=O [Compound 12, [(3-benzyloxy-17-oxo-13α-oestra-1,3,5(10)-trien-16β-yl)methyl]diphenylphosphine oxide] | < 20 | 96.4 ± 1.88 | 13.6 | < 20 | 90.2 ± 1.61 | 16.4 | < 20 | 48.3 ± 1.65 | 30.9 | < 20 | 97.68 ± 0.85 | 13.6 | 31.4 ± 1.55 | 75 ± 1.65 | 17 | 49.4 ± 2.06 | 90 ± 1.15 | 14.2 | < 20 | 75.5 ± 1.84 | IC50 (UPCI-SCC-154 cells): 29.8 µM; inhibition at 10 µM (MDA-MB-231 cells): < 20%; inhibition at 30 µM (MDA-MB-231 cells): 84 ± 2.61%; IC50 (MDA-MB-231 cells): 24.5 µM; IC50 [3]: 13.6 to 29.8 µM; inhibition at 10 µM (A2780 cells): < 20%; inhibition at 30 µM (A2780 cells): 97.14 ± 0.55%; IC50 (A2780 cells): 28.5 µM; inhibition at 10 µM (SiHa cells): < 20%; inhibition at 30 µM (SiHa cells): 94.8 ± 1.48%; IC50 (SiHa cells): 14.1 µM
COc1ccc2c(c1)CC[C@@H]1[C@@H]2CC[C@@]2(C)C(=O)[C@@H](CP(=O)(c3ccc(C)cc3)c3ccc(C)cc3)C[C@@H]12 [Compound 14, [(3-methoxy-17-oxo-13α-oestra-1,3,5(10)-trien-16β-yl)methyl]di-p-tolylphosphine oxide] | < 20 | 99.14 ± 0.37 | 12.2 | < 20 | 90 ± 2.88 | 14.4 | < 20 | 52.7 ± 2.87 | 29.6 | 26.9 ± 2.13 | 101.1 ± 0.24 | 10.9 | 22.6 ± 1.33 | 86 ± 1.51 | 13.8 | 48.8 ± 1.5 | 97.3 ± 1.38 | 10.9 | < 20 | 87 ± 1.16 | IC50 (UPCI-SCC-154 cells): 11.4 µM; inhibition at 10 µM (MDA-MB-231 cells): < 20%; inhibition at 30 µM (MDA-MB-231 cells): 98.22 ± 0.39%; IC50 (MDA-MB-231 cells): 17.6 µM; IC50 [3]: 10 to 25 µM; inhibition at 10 µM (A2780 cells): < 20%; inhibition at 30 µM (A2780 cells): 100.3 ± 0.22%; IC50 (A2780 cells): 21.5 µM; inhibition at 10 µM (SiHa cells): < 20%; inhibition at 30 µM (SiHa cells): 93 ± 1.37%; IC50 (SiHa cells): 11.8 µM

Reference: PMC8405091, “Microwave-assisted Phospha-Michael addition reactions in the 13α-oestrone series and in vitro antiproliferative properties” (Journal of Enzyme Inhibition and Medicinal Chemistry, 2021)
